Measured values from paper PMC12058161, “The plant matrix of Artemisia annua L. for the treatment of malaria: Pharmacodynamic and pharmacokinetic studies” (PLOS One, 2025).
“And” between values parts separate entries of the source, which are not always exact repeats. Equal values may be shown once.

How the values were obtained:
[1] = Stability of the five compounds in SD rat plasma (QC samples, UHPLC-ESI-MS/MS); assay type: in vitro ADME; conditions: for 3 freeze-thaw cycles mean ± SD / 7 days at -80°C mean ± SD / Room temperature 24h mean ± SD: SD rat plasma QC sample; for stability, Accuracy (measured versus nominal concentration) / stability, mean ± SD (measured concentration): SD rat plasma, n=5
Caco-2 cells = experiment: Cytotoxicity in Caco-2 cells, CCK-8 assay; assay type: cell-based, human; conditions: for Cell survival rate%: mean; for cck-8 mean (survival fraction): mean of 6
Procedure: Caco-2 cells were cultured in 96-well plates for 48 h at a seeding density of 5.0 × 10^3 cells/well before the addition of drugs. […] The final concentration of DMSO was 0.05% (v/v). Experiments were initiated by replacing the culture medium in each well with 100 μL of sample solutions at 37°C in the CO2 incubator. After 48 h of incubation, the medium was removed and 10 μL of CCK-8 reagent in the serum-free medium was added to each well. The plates were then incubated at 37°C for another 2 h. At the end of the incubation period, the plates were quantified by reading the absorbance at 450 nm on a micro-plate multi-detection instrument, SpectraMax iD3 with SoftMax® Pro (Molecular Devices Corporation Sunnyvale, CA, USA). The percentage of cell viability was calculated based on the absorbance measured relative to the absorbance of cells exposed to the negative control.

[2] = male, Sprague Dawley, rat, in vivo, po, 352 mg/kg
Procedure: (§1) Blood samples were centrifuged at 3500 rpm for 5 min at 4°C. All plasma samples were then stored at -80°C until analysis.
(§2) All samples were stored in a refrigerator at -80°C and thawed at room temperature before processing. A 50 μL aliquot of plasma was added with 5 μL of the standard solution (or acetonitrile) and 100 μL of internal standard solution in turn, vortexed and mixed, then sonicated for 3 min, centrifuged at 14000 rpm for 10 min at low temperature. The supernatant was transferred to an autosampler vial and analyzed by UHPLC-ESI-MS/MS.
(§3) The mobile phase consisted of 0.1% formic acid solution (A) and acetonitrile (B).
(§4) The ESI ionization source was used and detected in MRM mode.
(§5) All data were presented as mean ± SD. Pharmacokinetic parameters including half-life (t1/2), maximum plasma time (Tmax) and concentration (Cmax), area under concentration-time curve (AUC0-t and AUC0-∞), clearance (CL), steady-state volume of distribution (Vz), and mean residence time (MRT) were analyzed by non-compartmental method using DAS Version 2.0 (Chinese Pharmacological Society, Beijing, China). […] The data were analyzed by Student’s t-test for two groups and one-way analysis of variance for multiple groups; p < 0.05 was considered statistically significant.

in vivo = conditions: male, Sprague Dawley, rat, po, 352 mg/kg
Procedure: as §1, §2, §3, §4, §5

[3] = nominal 20 ng/mL, 3 freeze-thaw cycles
[4] = nominal 20 ng/mL, 7 days at -80°C
[5] = nominal 1000 ng/mL, 3 freeze-thaw cycles
[6] = nominal 1000 ng/mL, 7 days at -80°C
[7] = nominal 5000 ng/mL, 3 freeze-thaw cycles
[8] = nominal 5000 ng/mL, 7 days at -80°C
[9] = nominal 20 ng/mL, Room temperature 24h
[10] = nominal 1000 ng/mL, Room temperature 24h
[11] = nominal 5000 ng/mL, Room temperature 24h
[12] = Caco-2, concentration 10 μmol/L
[13] = Caco-2, concentration 20 μmol/L
[14] = Caco-2, concentration 40 μmol/L
[15] = Caco-2, concentration 80 μmol/L

- Stability in plasma, measured concentration (mean ± SD) ([1]; 3 freeze-thaw cycles, QC concentration 20 ng/mL): 21.4 ± 1.03 ng/mL
- Stability in plasma, measured concentration (mean ± SD) ([1]; 3 freeze-thaw cycles, QC concentration 1000 ng/mL): 1069 ± 21.8 ng/mL
- Stability in plasma, measured concentration (mean ± SD) ([1]; 3 freeze-thaw cycles, QC concentration 5000 ng/mL): 4765 ± 110 ng/mL
- Stability in plasma, measured concentration (mean ± SD) ([1]; 7 days at -80°C, QC concentration 20 ng/mL): 21.1 ± 1.73 ng/mL
- Stability in plasma, measured concentration (mean ± SD) ([1]; 7 days at -80°C, QC concentration 1000 ng/mL): 1069 ± 21.6 ng/mL
- Stability in plasma, measured concentration (mean ± SD) ([1]; 7 days at -80°C, QC concentration 5000 ng/mL): 4705 ± 267 ng/mL
- Stability, measured concentration, mean ± SD ([1]; QC sample 20 ng/mL, 3 freeze-thaw cycles): 21.4 ± 1.03 ng/mL
- Stability, measured concentration, mean ± SD ([1]; QC sample 20 ng/mL, 7 days at -80°C): 21.1 ± 1.73 ng/mL
- Stability, measured concentration, mean ± SD ([1]; QC sample 20 ng/mL, Room temperature 24h): 21.6 ± 0.78 ng/mL
- Stability, measured concentration, mean ± SD ([1]; QC sample 1000 ng/mL, 3 freeze-thaw cycles): 1069 ± 21.8 ng/mL
- Stability, measured concentration, mean ± SD ([1]; QC sample 1000 ng/mL, 7 days at -80°C): 1069 ± 21.6 ng/mL
- Stability, measured concentration, mean ± SD ([1]; QC sample 1000 ng/mL, Room temperature 24h): 1093 ± 39.5 ng/mL
- Stability, measured concentration, mean ± SD ([1]; QC sample 5000 ng/mL, 3 freeze-thaw cycles): 4765 ± 110 ng/mL
- Stability, measured concentration, mean ± SD ([1]; QC sample 5000 ng/mL, 7 days at -80°C): 4705 ± 267 ng/mL
- Stability, measured concentration, mean ± SD ([1]; QC sample 5000 ng/mL, Room temperature 24h): 5205 ± 494 ng/mL
- Stability in plasma, measured concentration (mean ± SD) ([1]; Room temperature 24h, QC concentration 20 ng/mL): 21.6 ± 0.78 ng/mL
- Stability in plasma, measured concentration (mean ± SD) ([1]; Room temperature 24h, QC concentration 1000 ng/mL): 1093 ± 39.5 ng/mL
- Stability in plasma, measured concentration (mean ± SD) ([1]; Room temperature 24h, QC concentration 5000 ng/mL): 5205 ± 494 ng/mL
- 3 freeze-thaw cycles mean ± SD [1, 3]: 21.4 ± 1.03 ng/mL and 21.3622 ng/mL
- 7 days at -80°C mean ± SD [1, 4]: 21.1 ± 1.73 ng/mL and 21.1491 ng/mL
- Room temperature 24h mean ± SD ([1]; nominal 20 ng/mL): 21.6 ± 0.78 ng/mL and 21.6437 ng/mL
- 3 freeze-thaw cycles mean ± SD [1, 5]: 1069 ± 21.8 ng/mL and 1069.41 ng/mL
- 7 days at -80°C mean ± SD [1, 6]: 1069 ± 21.6 ng/mL and 1068.61 ng/mL
- Room temperature 24h mean ± SD ([1]; nominal 1000 ng/mL): 1093 ng/mL and 1093 ± 39.5 ng/mL
- 3 freeze-thaw cycles mean ± SD [1, 7]: 4765 ± 110 ng/mL and 4765.19 ng/mL
- 7 days at -80°C mean ± SD [1, 8]: 4705 ± 267 ng/mL and 4704.92 ng/mL
- Room temperature 24h mean ± SD ([1]; nominal 5000 ng/mL): 5205.17 ng/mL and 5205 ± 494 ng/mL
- stability, Accuracy (measured versus nominal concentration) [1, 3]: 106.81%
- stability, mean ± SD (measured concentration) [1, 3]: 21.4 ± 1.03 ng/mL
- stability, Accuracy (measured versus nominal concentration) [1, 4]: 105.75%
- stability, mean ± SD (measured concentration) [1, 4]: 21.1 ± 1.73 ng/mL
- stability, Accuracy (measured versus nominal concentration) [1, 9]: 108.22%
- stability, mean ± SD (measured concentration) [1, 9]: 21.6 ± 0.78 ng/mL
- stability, Accuracy (measured versus nominal concentration) [1, 5]: 106.94%
- stability, mean ± SD (measured concentration) [1, 5]: 1069 ± 21.8 ng/mL
- stability, Accuracy (measured versus nominal concentration) [1, 6]: 106.86%
- stability, mean ± SD (measured concentration) [1, 6]: 1069 ± 21.6 ng/mL
- stability, Accuracy (measured versus nominal concentration) [1, 10]: 109.30%
- stability, mean ± SD (measured concentration) [1, 10]: 1093 ± 39.5 ng/mL
- stability, Accuracy (measured versus nominal concentration) [1, 7]: 95.30%
- stability, mean ± SD (measured concentration) [1, 7]: 4765 ± 110 ng/mL
- stability, Accuracy (measured versus nominal concentration) [1, 8]: 94.10%
- stability, mean ± SD (measured concentration) [1, 8]: 4705 ± 267 ng/mL
- stability, Accuracy (measured versus nominal concentration) [1, 11]: 104.10%
- stability, mean ± SD (measured concentration) [1, 11]: 5205 ± 494 ng/mL
- CL [2]: 0.024 ± 0.003 L/h
- Vz [2]: 0.135 ± 0.049 L
- AUC(0-inf) (in vivo): 848 ± 111 ng·h/mL
- AUC(0-t) (in vivo): 750 ± 114 ng·h/mL
- Cmax (in vivo; Cmax): 143 ± 37.3 ng/mL
- MRT last (in vivo; MRT(0-t)): 4.04 ± 0.427 h
- MRT inf (in vivo; MRT(0-∞)): 6.12 ± 1.34 h
- half-life (in vivo; t1/2): 3.94 ± 1.57 h
SMILES: C[C@@H]1CC[C@H]2[C@@H](C)C(=O)O[C@@H]3O[C@@]4(C)CC[C@@H]1[C@]32O4 [DEART, Deoxyartemisinin]
- Cell survival rate%, single replicate (Caco-2 cells; Caco-2, 5μmol/L): 87.61% and 87.6% and 80.17% and 81.51% and 81.61% and 87.86%
- Cell survival rate%, single replicate (Caco-2 cells; Caco-2, 10μmol/L): 81.2% and 82.86% and 82.71% and 83.82% and 87.89% and 87.9%
- Cell survival rate%, single replicate (Caco-2 cells; Caco-2, 20μmol/L): 86.78% and 81.42% and 81.32% and 82.7% and 86.07% and 80.23%
- Cell survival rate%, single replicate (Caco-2 cells; Caco-2, 40μmol/L): 83.23% and 82.76% and 82.72% and 82.4% and 81.01% (2×)
- Cell survival rate%, single replicate (Caco-2 cells; Caco-2, 80μmol/L): 79.21% and 80.38% and 82.01% and 81.79% and 85.15% and 82.39%
- cck-8 cell survival as fraction, single replicate (Caco-2 cells; Caco-2, concentration 5 μmol/L): 0.8761 and 0.876 and 0.8017 and 0.8151 and 0.8161 and 0.8786
- Cell survival rate% (Caco-2 cells; Caco-2, concentration 5 μmol/L): 84.39%
- cck-8 mean (survival fraction) (Caco-2 cells; Caco-2, concentration 5 μmol/L): 0.84
- cck-8 cell survival as fraction, single replicate (Caco-2 cells; [12]): 0.812 and 0.8286 and 0.8271 and 0.8382 and 0.8789 and 0.879
- Cell survival rate% (Caco-2 cells; [12]): 84.40%
- cck-8 mean (survival fraction) (Caco-2 cells; [12]): 0.84
- cck-8 cell survival as fraction, single replicate (Caco-2 cells; [13]): 0.8678 and 0.8142 and 0.8132 and 0.827 and 0.8607 and 0.8023
- Cell survival rate% (Caco-2 cells; [13]): 83.09%
- cck-8 mean (survival fraction) (Caco-2 cells; [13]): 0.83
- cck-8 cell survival as fraction, single replicate (Caco-2 cells; [14]): 0.8323 and 0.8276 and 0.8272 and 0.824 and 0.8101
- Cell survival rate% (Caco-2 cells; [14]): 82.19%
- cck-8 mean (survival fraction) (Caco-2 cells; [14]): 0.82
- cck-8 cell survival as fraction, single replicate (Caco-2 cells; [15]): 0.7921 and 0.8038 and 0.8201 and 0.8179 and 0.8515 and 0.8239
- Cell survival rate% (Caco-2 cells; [15]): 81.82%
- cck-8 mean (survival fraction) (Caco-2 cells; [15]): 0.82
